The molecules below were run against T1, AKT1 (Homo sapiens, UniProt P31749) (assay: HTS ATP-utilizing enzyme assay, off-chip mobility-shift (Caliper HTS 250)). Details: kinase named = inhibitory activity/selectivity; test compound 10 μM; active = greater than three-sigma from mean.
T1 construct: purchased Upstate 14-276
Assay type: biochemical
Procedure, shortened: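 AKT1 activity was measured by off-chip mobility shift (Caliper HTS 250) as the ratio of peptide substrate to phosphorylated product. Test compound was at 10 μM, with 2.5 h incubation at 20–22° C. EDTA wells served as 100% control and DMSO wells as 0%. Hits were called at three-sigma limits.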

T1 sequence (P31749 whole entry): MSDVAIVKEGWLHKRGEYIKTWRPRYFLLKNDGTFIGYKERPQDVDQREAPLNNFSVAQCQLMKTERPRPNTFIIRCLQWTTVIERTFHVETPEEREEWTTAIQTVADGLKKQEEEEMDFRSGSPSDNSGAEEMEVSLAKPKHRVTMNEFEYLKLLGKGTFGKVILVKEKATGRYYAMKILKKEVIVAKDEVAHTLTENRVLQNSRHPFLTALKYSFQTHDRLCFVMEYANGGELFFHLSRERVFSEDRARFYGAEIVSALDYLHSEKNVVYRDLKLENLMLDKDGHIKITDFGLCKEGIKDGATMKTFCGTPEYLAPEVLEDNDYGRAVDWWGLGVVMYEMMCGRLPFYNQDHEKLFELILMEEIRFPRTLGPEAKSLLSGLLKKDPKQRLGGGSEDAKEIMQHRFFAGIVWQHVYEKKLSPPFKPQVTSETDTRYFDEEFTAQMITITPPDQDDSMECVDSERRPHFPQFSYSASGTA

Activity, AKT1:
NC(=O)C1CCCN(C(=O)CCN(C(=O)c2cccs2)c2nc(-c3cc4ccccc4o3)cs2)C1 (stereo not drawn) [1-(3-(N-(4-(benzofuran-2-yl)thiazol-2-yl)thiophene-2-carboxamido)propanoyl)piperidine-3-carboxamide], O=C(c1cccs1)N(CCCC(=O)N1CCCC1c1cccnc1)c1nc(-c2cc3ccccc3o2)cs1 (stereo not drawn) [N-(4-(benzofuran-2-yl)thiazol-2-yl)-N-(4-oxo-4-(2-(pyridin-3-yl)pyrrolidin-1-yl)butyl)thiophene-2-carboxamide], O=C(c1cccs1)N(CCCN1CCOCC1)c1nc(-c2ccc3ccccc3c2)cs1 [N-(3-morpholinopropyl)-N-(4-(naphthalen-2-yl)thiazol-2-yl)thiophene-2-carboxamide], O=C(c1cccs1)N(CCCN1CCCC(O)C1)c1nc(-c2cc3ccccc3o2)cs1 (stereo not drawn) [N-(4-(benzofuran-2-yl)thiazol-2-yl)-N-(3-(3-hydroxypiperidin-1-yl)propyl)thiophene-2-carboxamide], CCc1nnc(NC(=O)c2csc(N(CCCN3CCOCC3)C(=O)c3cccs3)n2)s1 [N-(5-ethyl-1,3,4-thiadiazol-2-yl)-2-(N-(3-morpholinopropyl)thiophene-2-carboxamido)thiazole-4-carboxamide], CCN(CC)CCCN(C(=O)c1ccccc1)c1nc(-c2ccc(OC)cc2)cs1 [N-(3-(diethylamino)propyl)-N-(4-(4-methoxyphenyl)thiazol-2-yl)benzamide], CN1CCN(C(=O)c2ccc(-c3csc(N(CCCN4CCOCC4)C(=O)c4cccs4)n3)cc2)CC1 [N-(4-(4-(4-methylpiperazine-1-carbonyl)phenyl)thiazol-2-yl)-N-(3-morpholinopropyl)thiophene-2-carboxamide], O=C(c1cccs1)N(CCCN1CCOCC1)c1nc(-c2ccccc2)cs1 [N-(3-morpholinopropyl)-N-(4-phenylthiazol-2-yl)thiophene-2-carboxamide], COc1ccc(-c2csc(N(CCCN3CCCCCC3)C(=O)c3ccco3)n2)cc1 [N-(3-(azepan-1-yl)propyl)-N-(4-(4-methoxyphenyl)thiazol-2-yl)furan-2-carboxamide], COc1ccc(-c2csc(N(CCCN3CCCCC3)C(=O)c3cccs3)n2)cc1OC [N-(4-(3,4-dimethoxyphenyl)thiazol-2-yl)-N-(3-(piperidin-1-yl)propyl)thiophene-2-carboxamide], COc1ccc(-c2csc(N(CCCN3CCOCC3)C(=O)c3sccc3C)n2)cc1 [N-(4-(4-methoxyphenyl)thiazol-2-yl)-3-methyl-N-(3-morpholinopropyl)thiophene-2-carboxamide], COc1ccc(-c2csc(N(CCCN3CCOCC3)C(=O)c3cccn3C)n2)cc1 [N-(4-(4-methoxyphenyl)thiazol-2-yl)-1-methyl-N-(3-morpholinopropyl)-1H-pyrrole-2-carboxamide], O=C1CCCN1CCCN(C(=O)c1ccco1)c1nc(-c2cc3ccccc3o2)cs1 [N-(4-(benzofuran-2-yl)thiazol-2-yl)-N-(3-(2-oxopyrrolidin-1-yl)propyl)furan-2-carboxamide], CC(=O)NC1CCN(C(=O)CCN(C(=O)c2cccs2)c2nc(-c3cc4ccccc4o3)cs2)C1 (stereo not drawn) [N-(3-(3-acetamidopyrrolidin-1-yl)-3-oxopropyl)-N-(4-(benzofuran-2-yl)thiazol-2-yl)thiophene-2-carboxamide], CCCN(C(=O)c1cccs1)c1nc(-c2cc3ccccc3o2)cs1 [N-(4-(benzofuran-2-yl)thiazol-2-yl)-N-propylthiophene-2-carboxamide], O=C(c1cccs1)N(CCCN1CCOCC1)c1nc(-c2cc(-c3ccccc3)no2)cs1 [N-(3-morpholinopropyl)-N-(4-(3-phenylisoxazol-5-yl)thiazol-2-yl)thiophene-2-carboxamide], CCN(CC)C1CCN(CCCN(C(=O)c2cccs2)c2nc(-c3cc4ccccc4o3)cs2)CC1 [N-(4-(benzofuran-2-yl)thiazol-2-yl)-N-(3-(4-(diethylamino)piperidin-1-yl)propyl)thiophene-2-carboxamide], O=C(c1cccs1)N(CCCN1CCOCC1)c1nc(-c2ccc(Cl)cc2)cs1 [N-(4-(4-chlorophenyl)thiazol-2-yl)-N-(3-morpholinopropyl)thiophene-2-carboxamide], COc1ccccc1-c1csc(N(CCCN2CCOCC2)C(=O)c2cccs2)n1 [N-(4-(2-methoxyphenyl)thiazol-2-yl)-N-(3-morpholinopropyl)thiophene-2-carboxamide], COc1ccc(-c2csc(N(CCCN3CCOCC3)C(=O)c3cccc(C)c3)n2)cc1 [N-(4-(4-methoxyphenyl)thiazol-2-yl)-3-methyl-N-(3-morpholinopropyl)benzamide], CN(C)CCOc1ccc(-c2csc(N(CCCN3CCOCC3)C(=O)c3cccs3)n2)cc1 [N-(4-(4-(2-(dimethylamino)ethoxy)phenyl)thiazol-2-yl)-N-(3-morpholinopropyl)thiophene-2-carboxamide], COc1ccc(-c2csc(N(Cc3ccco3)C(=O)c3cccs3)n2)cc1 [N-(furan-2-ylmethyl)-N-(4-(4-methoxyphenyl)thiazol-2-yl)thiophene-2-carboxamide], O=C(c1cccs1)N(CCCc1ccccc1)c1nc(-c2cc3ccccc3o2)cs1 [N-(4-(benzofuran-2-yl)thiazol-2-yl)-N-(3-phenylpropyl)thiophene-2-carboxamide], CCOC(=O)c1cc(-c2csc(N(CCCN3CCOCC3)C(=O)c3cccs3)n2)on1 [ethyl 5-(2-(N-(3-morpholinopropyl)thiophene-2-carboxamido)thiazol-4-yl)isoxazole-3-carboxylate], COc1ccc(OC)c(-c2csc(N(CCCN3CCCCCC3)C(=O)c3cccs3)n2)c1 [N-(3-(azepan-1-yl)propyl)-N-(4-(2,5-dimethoxyphenyl)thiazol-2-yl)thiophene-2-carboxamide], O=C(CCN(C(=O)c1cccs1)c1nc(-c2cc3ccccc3o2)cs1)N1CCNCC1 [N-(4-(benzofuran-2-yl)thiazol-2-yl)-N-(3-oxo-3-(piperazin-1-yl)propyl)thiophene-2-carboxamide], Cc1ccc(-c2csc(N(CCCN3CCOCC3)C(=O)c3cccs3)n2)c(C)c1 [N-(4-(2,4-dimethylphenyl)thiazol-2-yl)-N-(3-morpholinopropyl)thiophene-2-carboxamide], O=C(c1cccs1)N(CCCN1CCOCC1)c1nc(-c2cc3ccccc3[nH]2)cs1 [N-(4-(1H-indol-2-yl)thiazol-2-yl)-N-(3-morpholinopropyl)thiophene-2-carboxamide], O=C1CCCN1CCCN(C(=O)c1cccs1)c1nc(-c2cc(-c3ccccc3)no2)cs1 [N-(3-(2-oxopyrrolidin-1-yl)propyl)-N-(4-(3-phenylisoxazol-5-yl)thiazol-2-yl)thiophene-2-carboxamide], CN(CCC#N)C(=O)CCN(C(=O)c1cccs1)c1nc(-c2cc3ccccc3o2)cs1 [N-(4-(benzofuran-2-yl)thiazol-2-yl)-N-(3-((2-cyanoethyl)(methyl)amino)-3-oxopropyl)thiophene-2-carboxamide]
